Experimental data: patent US8815909B2, “Diaminocyclohexane compounds and uses thereof” (Bristol-Myers Squibb Company, priority 2011, dated 2014)

molecular target: T1, human Y4 receptor (Homo sapiens, UniProt P50391); assay: NPY4 cAMP HTRF Agonist Assay (inhibitory cAMP assay, Gi activation by Y4 agonism); assay type: cell-based; settings: human Y4 receptor, cAMP; read-out: hY4 CAMP EC50
T1 construct: expressed in transfected cells
Outline: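 Y4 agonism read as lowered forskolin-stimulated cAMP (HTRF, 1 h detection at room temperature). Stable human Y4 CHO clone, 5000 cells/well, incubated 30 min at room temperature with compounds plus forskolin and IBMX in PBS.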

T1 sequence (P50391 whole entry): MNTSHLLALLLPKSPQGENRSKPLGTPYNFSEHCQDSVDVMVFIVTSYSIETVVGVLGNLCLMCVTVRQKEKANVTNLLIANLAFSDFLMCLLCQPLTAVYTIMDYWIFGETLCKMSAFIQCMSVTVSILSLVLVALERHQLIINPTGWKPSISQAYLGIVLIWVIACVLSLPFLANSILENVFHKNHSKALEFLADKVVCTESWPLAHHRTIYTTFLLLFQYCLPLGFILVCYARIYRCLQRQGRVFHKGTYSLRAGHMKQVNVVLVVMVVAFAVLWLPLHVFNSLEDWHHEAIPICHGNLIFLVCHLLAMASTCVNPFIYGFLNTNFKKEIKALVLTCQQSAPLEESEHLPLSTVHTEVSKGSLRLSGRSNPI

Row | EC50 [µM] | SMILES
1 | 0.079 | NC(=O)c1cccc(-c2ccnc(N[C@@H]3CCCC[C@H]3N[C@H]3CCCN(c4cnc(C(F)(F)F)cn4)C3)c2)c1 [Example 473]
2 | 0.142 | C[C@]1(N[C@@H]2CCCC[C@H]2Nc2cc(-c3cccc(C(N)=O)c3)ccn2)CCCN(c2cnc(C(F)(F)F)cn2)C1 [Example 474]
3 | 0.008 | NC(=O)c1cccc(-c2cnc(N[C@@H]3CCCC[C@H]3N[C@H]3CCCN(c4cnc(C(F)(F)F)cn4)C3)o2)c1 [Example 475]
4 | 0.049 | C[C@]1(N[C@@H]2CCCC[C@H]2Nc2ncc(-c3cccc(C(N)=O)c3)o2)CCCN(c2cnc(C#N)cn2)C1 [Example 476]
5 | 0.775 | N#Cc1cnc(N2CCC[C@H](N[C@@H]3CCCC[C@H]3Nc3cc(-c4cccc(C(N)=O)c4)ccn3)C2)cn1 [Example 477]
6 | 0.025 | N#Cc1cnc(N2CCC[C@H](N[C@@H]3CCCC[C@H]3Nc3ncc(-c4cccc(C(N)=O)c4)o3)C2)cn1 [Example 478]
7 | 0.333 | N#Cc1ccc(N2CCCC(N[C@@H]3CCCC[C@H]3Nc3ncc(-c4cccc(C(N)=O)c4)o3)C2)nn1 (some centres unmarked) [Example 479]
8 | 0.017 | NC(=O)c1cccc(-c2cnc(N[C@@H]3CCCC[C@H]3N[C@H]3CCCN(c4ccc5ncnn5c4)C3)o2)c1 [Example 480]
9 | 0.034 | NC(=O)c1cccc(-c2ccnc(N[C@@H]3CCCC[C@H]3N[C@H]3CCCN(c4ccc5ncnn5c4)C3)c2)c1 [Example 481]
10 | 0.107 | FC(F)(F)Oc1ccc(-c2cnc(N[C@@H]3CCCC[C@H]3N[C@H]3CCCN(c4ccc5ncnn5c4)C3)o2)cc1 [Example 482]
11 | 0.004 | COC(=O)Nc1cccc(-c2cnc(N[C@@H]3CCCC[C@H]3N[C@H]3CCCN(c4ccc5ncnn5c4)C3)o2)c1 [Example 483]
12 | 0.312 | COC(=O)c1cccc(-c2cnc(N[C@@H]3CCCC[C@H]3N[C@H]3CCCN(c4ccc5ncnn5c4)C3)o2)c1 [Example 484]
13 | 0.058 | CNC(=O)c1cccc(-c2cnc(N[C@@H]3CCCC[C@H]3N[C@H]3CCCN(c4ccc5ncnn5c4)C3)o2)c1 [Example 485]
14 | 0.078 | O=C(NC1CC1)c1cccc(-c2cnc(N[C@@H]3CCCC[C@H]3N[C@H]3CCCN(c4ccc5ncnn5c4)C3)o2)c1 [Example 486]
15 | 0.016 | O=C(Nc1cccc(-c2cnc(N[C@@H]3CCCC[C@H]3N[C@H]3CCCN(c4ccc5ncnn5c4)C3)o2)c1)C1CC1 [Example 487]
16 | 0.699 | CC(C)(C)OC(=O)Nc1cccc(-c2cnc(N[C@@H]3CCCC[C@H]3N[C@H]3CCCN(c4ccc5ncnn5c4)C3)o2)c1 [Example 488]
17 | 0.003 | Cc1nc2ccc(N3CCC[C@H](N[C@@H]4CCCC[C@H]4Nc4ncc(-c5cccc(C(N)=O)c5)o4)C3)cn2n1 [Example 489]
18 | 0.001 | COC(=O)Nc1cccc(-c2cnc(N[C@@H]3CCCC[C@H]3N[C@H]3CCCN(c4ccc5nc(C)nn5c4)C3)o2)c1 [Example 490]
19 | 0.022 | Cc1nc2ccc(N3CCC[C@H](N[C@@H]4CCCC[C@H]4Nc4cc(-c5cccc(C(N)=O)c5)ccn4)C3)cn2n1 [Example 491]
20 | 0.038 | Cc1nc2ccc(N3CCC[C@H](N[C@@H]4CCCC[C@H]4Nc4ncc(-c5ccc(F)c(F)c5)o4)C3)cn2n1 [Example 492]
21 | 0.047 | Cc1nc2ccc(N3CCC[C@H](N[C@@H]4CCCC[C@H]4Nc4ncc(-c5ccc(F)cc5F)o4)C3)cn2n1 [Example 493]
22 | 0.042 | Cc1nc2ccc(N3CCC[C@H](N[C@@H]4CCCC[C@H]4Nc4ncc(-c5cccc(C(=O)NC6CC6)c5)o4)C3)cn2n1 [Example 494]

Row | EC50 [µM] | SMILES
23 | 0.049 | COC(=O)c1cccc(-c2cnc(N[C@@H]3CCCC[C@H]3N[C@H]3CCCN(c4ccc5nc(C)nn5c4)C3)o2)c1 [Example 495]
24 | 0.004 | CNC(=O)c1cccc(-c2cnc(N[C@@H]3CCCC[C@H]3N[C@H]3CCCN(c4ccc5nc(C)nn5c4)C3)o2)c1 [Example 496]
25 | 0.046 | Cc1nc2ccc(N3CCC[C@H](N[C@@H]4CCCC[C@H]4Nc4ncc(-c5cc(F)c(F)cc5F)o4)C3)cn2n1 [Example 497]
26 | 0.063 | Cc1nc2ccc(N3CCC[C@H](N[C@@H]4CCCC[C@H]4Nc4ncc(-c5cc(F)c(F)c(F)c5)o4)C3)cn2n1 [Example 498]
27 | 0.0014 | Cn1nnc(-c2ccc(N3CCC[C@H](N[C@@H]4CCCC[C@H]4Nc4ncc(-c5ccc(OC(F)(F)F)cc5)o4)C3)cc2)n1 [Example 499]
28 | 0.101 | NC(=O)c1cccc(-c2cnc(N[C@@H]3CCCC[C@H]3N[C@H]3CCCN(c4ccc(-n5cncn5)cc4)C3)o2)c1 [Example 500]
29 | 0.084 | Cn1nnc(-c2ccc(N3CCC[C@H](N[C@@H]4CCCC[C@H]4Nc4cc(Br)ccn4)C3)cc2)n1 [Example 501]
30 | 0.098 | Cn1nnnc1-c1ccc(N2CCC[C@H](N[C@@H]3CCCC[C@H]3Nc3nccc(-c4ccccc4)n3)C2)cc1 [Example 502]
31 | 0.15 | Cn1nnc(-c2ccc(N3CCC[C@H](N[C@@H]4CCCC[C@H]4Nc4cc(-c5ccc(OC(F)F)cc5)ccn4)C3)cc2)n1 [Example 503]
32 | 0.0003 | Cn1nnc(-c2ccc(N3CCC[C@H](N[C@@H]4CCCC[C@H]4Nc4cc(-c5cccc(O)c5)ccn4)C3)cc2)n1 [Example 504]
33 | 0.009 | Cn1nnc(-c2ccc(N3CCC[C@H](N[C@@H]4CCCC[C@H]4Nc4cc(-c5cccc(C(N)=O)c5)ccn4)C3)cc2)n1 [Example 505]
34 | 0.0002 | CC(=O)Nc1cccc(-c2ccnc(N[C@@H]3CCCC[C@H]3N[C@H]3CCCN(c4ccc(-c5nnn(C)n5)cc4)C3)c2)c1 [Example 506]
35 | 0.006 | Cn1nnc(-c2ccc(N3CCC[C@H](N[C@@H]4CCCC[C@H]4Nc4cc(-c5cccc(NS(C)(=O)=O)c5)ccn4)C3)cc2)n1 [Example 507]
36 | 0.021 | Cn1nnnc1-c1ccc(N2CCC[C@H](N[C@@H]3CCCC[C@H]3Nc3cc(-c4cccc(C(N)=O)c4)ccn3)C2)cc1 [Example 508]
37 | 0.128 | C[C@]1(N[C@@H]2CCCC[C@H]2Nc2ncc(-c3ccc(OC(F)(F)F)cc3)o2)CCCN(c2ccc(O)cc2)C1 [Example 509]
38 | 0.082 | FC(F)(F)Oc1ccc(-c2cnc(N[C@@H]3CCCC[C@H]3N[C@H]3C[C@@H]4C[C@H]3N(c3cc(Cl)ncn3)C4)o2)cc1 [Example 510]
39 | 0.023 | NC(=O)c1cccc(-c2ccnc(N[C@@H]3CCCC[C@H]3N[C@H]3CCCN(c4ccc(-n5cccn5)cc4)C3)c2)c1 [Example 511]
40 | 0.65 | NC(=O)c1cccc(-c2ccnc(N[C@@H]3CCCC[C@H]3N[C@H]3CCCN(c4ccc(-n5cncn5)cc4)C3)c2)c1 [Example 512]
41 | 0.002 | COC(=O)Nc1cccc(-c2ccnc(N[C@@H]3CCCC[C@H]3N[C@H]3CCCN(c4ccc(Br)cc4)C3)c2)c1 [Example 513]
42 | 0.004 | COC(=O)Nc1cccc(-c2ccnc(N[C@@H]3CCCC[C@H]3N[C@H]3CCCN(c4ccc(-c5cccnc5)cc4)C3)c2)c1 [Example 514]
43 | 0.011 | COC(=O)Nc1cccc(-c2ccnc(N[C@@H]3CCCC[C@H]3N[C@H]3CCCN(c4ccc(-c5cncnc5)cc4)C3)c2)c1 [Example 515]
44 | 0.017 | COC(=O)Nc1cccc(-c2ccnc(N[C@@H]3CCCC[C@H]3N[C@H]3CCCN(c4ccc(-c5ccccc5)cc4)C3)c2)c1 [Example 516]
